Data taken from US20230245787A1, “METHODS FOR PREDICTING SYNERGISTIC DRUG COMBINATION” (GenomiCare Biotechnology (Shanghai) Co., Ltd, priority 2020, published 2023).

System: Hepatocellular Carcinoma (HCC) and Intrahepatic Cholangiocarcinoma (ICC)
Experiment: Exhaustive Cox proportional hazards (ECPH) model on real-world survival data of drug combination groups
Assay type: in vivo, human
Conditions: Cox PH
[1] = Sorafenib x Lenvatinib groups (Contingency Table A)
[2] = Regorafenib x Lenvatinib groups (Contingency Table B)

Excerpt: Then, a novel exhaustive Cox proportional hazards model (ECPH) model is used to evaluate all possible drug combinations with respect to their efficacy in prolonging patients' lives. In terms of efficacy, there can be three types of drug interaction: additive, synergistic, and antagonistic.
The approach used in the present disclosure further extends the CPH model. In an example process, drugs used for fewer than one treatment cycle or the number of patients in any variables less than 15 were removed. Then, a 2×2 contingency table is set up, in which rows are defined by every unique genomic or clinical variable, and the columns are defined by drug variable (See Table 3 as an illustration). Then the CPH model (as described in “The Robust Inference for the Cox Proportional Hazards Model”, D. Y. Lin &L. J. Wei, Journal of the Am. Stat. Assoc., pp. 1074-1078, 1989) is used to calculate independent risk factors, cumulative hazard-ratios, and p-values for each drug combination table.
Additive combination definition: The HR score of the drug A+ plus factor B+ group is between the other two treatment groups (A+B− and A−B+). The P-value of the drug A+ plus factor B+ group is not statistically significant compared with the other two treatment groups (A+B− and A−B+).
Synergistic combination definition: The HR score of the drug A+ plus factor B+ group is smaller than the other two treatment groups (A+B− and A−B+). […] The drug A+ plus factor B+ group is the statistically independent variable of the other two treatment groups (A+B− and A−B+).
In this example, data were collected and analyzed in the following steps:
(2) Real-world clinical electronic health records (EHRs) collection, clinical data entry and l long-term follow-up, according to the flowchart shown in FIG. 4.
(3) Comprehensive genomic data is matched with real-world treatment patterns and clinical outcomes feature database and analysis workflow, as shown in FIG. 5.
(4) A large one-hot encoding matrix(˜10,000*10,000) of comprehensive genomic and clinical factors. Based on the one-hot encoding matrix, the combined effects of all factors such as: age, gender, gene mutation, and drug treatment can be obtained.
(5) Applying exhaustive Cox proportional hazards model (ECPH) model
a. Patients are divided into four categories based on the combined use of the two drugs. For an example: Patients treated with Lenvatinib and without Sorafenib were defined as the Lenvatinib treatment group. Patients treated with Sorafenib and without Lenvatinib were defined as the Sorafenib treatment group. Patients treated with Sorafenib and Lenvatinib were defined as the Sorafenib-Lenvatinib treatment group. Patients treated without Sorafenib and Lenvatinib were defined as Sorafenib-Lenvatinib free treatment group.
b. 2×2 contingency tables were calculated for all possible drug combinations pairs: Millions of possible combinations of Lenvatinib.
c. Cox PH model (The Robust Inference for the Cox Proportional Hazards Model D. Y. Lin &L. J. Wei Pages 1074-1078) was used to calculate independent risk factors, cumulative hazard-ratios, and p-values for each drug combination table. […] It can be estimated as follow: h(t)=h0(t)×exp(b1x1+b2x2+ . . . +bpxp) where, • t represents the survival time. • h(t) is the hazard function determined by a set of p covariates (x1, x2, . . . , xp) • the coefficients (b1, b2, . . . , bp) measure the impact (i.e., the effect size) of covariates. • the term h0 is referred to the baseline hazard.

| Compound | HR (hazard ratio) [1] | HR (hazard ratio) [2] | HR (hazard ratio) (PD-1/PD-L1 x Lenvatinib groups (Contingency Table C), Chinese HCC and ICC patients) |
| --- | --- | --- | --- |
| CNC(=O)c1cc(Oc2ccc(NC(=O)Nc3ccc(Cl)c(C(F)(F)F)c3)cc2)ccn1 [Sorafenib] | 0.76 | – | – |
| CNC(=O)c1cc(Oc2ccc(NC(=O)Nc3ccc(Cl)c(C(F)(F)F)c3)c(F)c2)ccn1 [Regorafenib] | – | 0.99 | – |
| COc1cc2nccc(Oc3ccc(NC(=O)NC4CC4)c(Cl)c3)c2cc1C(N)=O [Lenvatinib] | 0.56 | 0.74 | 1.00 |
